# Assay results taken from ChEMBL document CHEMBL1201862, “PubChem BioAssay data set” (2004).
# Calls of active or inactive are those of the source.
# Assays:
# Estrogen receptor beta [1] = molecular target: T1, Estrogen receptor beta (Homo sapiens, UniProt Q92731); experiment: blockers of SRC-3 recruitment to ERβ – biochemical, ELISA, streptavidin-HRP readout, orthogonal assay, confirmation (AID 1060)
# Estrogen receptor beta [2] = molecular target: T1, Estrogen receptor beta
# Procathepsin L = Procathepsin L (Homo sapiens, UniProt P07711); experiment: CTSL1 protease inhibition – biochemical, QFRET, 1536-well, counter-screen for M1/M17 aminopeptidase inhibitor project, dose response (AID 2214)
# Leucine aminopeptidase = molecular target: T2, Leucine aminopeptidase (Plasmodium falciparum 3D7, UniProt Q8IL11); experiment: P. falciparum M17LAP inhibitors, primary screen, biochemical, fluorogenic H-Leu-NHMec substrate, 1536-well (AID 1619); type: functional
# T2 sequence (Q8IL11 whole entry): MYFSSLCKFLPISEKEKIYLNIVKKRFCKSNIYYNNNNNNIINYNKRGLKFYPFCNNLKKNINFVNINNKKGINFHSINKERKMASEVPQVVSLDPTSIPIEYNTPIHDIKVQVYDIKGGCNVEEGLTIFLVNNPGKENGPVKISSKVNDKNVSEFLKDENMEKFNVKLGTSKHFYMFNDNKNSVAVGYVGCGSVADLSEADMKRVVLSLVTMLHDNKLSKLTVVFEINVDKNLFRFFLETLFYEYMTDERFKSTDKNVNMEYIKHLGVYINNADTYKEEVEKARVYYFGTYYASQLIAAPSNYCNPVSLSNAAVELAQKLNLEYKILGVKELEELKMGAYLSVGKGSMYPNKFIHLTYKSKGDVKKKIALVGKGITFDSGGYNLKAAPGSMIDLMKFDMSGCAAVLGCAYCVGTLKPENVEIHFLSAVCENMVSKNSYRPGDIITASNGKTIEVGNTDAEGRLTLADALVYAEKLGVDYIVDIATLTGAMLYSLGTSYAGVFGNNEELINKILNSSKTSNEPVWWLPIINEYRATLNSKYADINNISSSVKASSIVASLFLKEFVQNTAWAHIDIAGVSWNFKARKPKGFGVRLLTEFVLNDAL
# Protein RecA = molecular target: T3, Protein RecA (Mycobacterium tuberculosis, UniProt P9WHJ3); experiment: Fluorescence Cell-Free Homogeneous Dose Retest to Identify Inhibitors of RecA-Intein Splicing Activity. [Related pubchem assays (depositor defined):AID2097, AID2223, AID489010, AID492950]; type: functional
# T3 sequence (P9WHJ3 whole entry): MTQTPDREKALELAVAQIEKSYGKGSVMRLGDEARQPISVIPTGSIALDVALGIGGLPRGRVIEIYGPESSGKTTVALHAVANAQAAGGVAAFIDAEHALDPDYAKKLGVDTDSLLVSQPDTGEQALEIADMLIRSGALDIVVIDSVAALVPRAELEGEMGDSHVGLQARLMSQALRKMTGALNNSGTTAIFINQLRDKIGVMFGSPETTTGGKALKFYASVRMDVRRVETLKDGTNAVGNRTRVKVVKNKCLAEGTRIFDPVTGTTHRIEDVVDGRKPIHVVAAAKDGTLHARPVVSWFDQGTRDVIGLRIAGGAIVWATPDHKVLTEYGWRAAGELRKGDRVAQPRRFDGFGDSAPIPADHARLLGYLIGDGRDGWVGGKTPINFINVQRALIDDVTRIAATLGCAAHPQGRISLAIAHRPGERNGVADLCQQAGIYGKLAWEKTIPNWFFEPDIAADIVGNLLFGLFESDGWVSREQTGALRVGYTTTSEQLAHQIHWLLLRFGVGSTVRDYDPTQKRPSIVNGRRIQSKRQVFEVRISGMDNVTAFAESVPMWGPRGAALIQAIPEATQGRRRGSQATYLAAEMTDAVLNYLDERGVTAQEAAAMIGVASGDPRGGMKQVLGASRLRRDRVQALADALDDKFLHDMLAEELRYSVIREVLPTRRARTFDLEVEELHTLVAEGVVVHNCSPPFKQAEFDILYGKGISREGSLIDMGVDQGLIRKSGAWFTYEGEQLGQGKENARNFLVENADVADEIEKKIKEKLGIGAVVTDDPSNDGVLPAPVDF
# Aspartyl aminopeptidase = Aspartyl aminopeptidase (Plasmodium falciparum 3D7, UniProt Q8I2J3); experiment: Counterscreen for inhibitors of M1 and M17 aminopeptidases: QFRET-based biochemical high throughput dose response assay for inhibitors of the Plasmodium falciparum M18 Aspartyl Aminopeptidase (PFM18AAP). [Related PubChem assays: 1619 (Screening assay (M17LAP inhibitors).), 1445 (Screening assay (M1AAP inhibitors).)]
# [3] = molecular target: T4, Replicative DNA helicase DnaB (Mycobacterium tuberculosis, UniProt P9WMR3); experiment: DnaB intein splicing inhibitors, dose response, biochemical, cell-free fluorescence (AID 449749); type: functional
# T4 sequence (P9WMR3 whole entry): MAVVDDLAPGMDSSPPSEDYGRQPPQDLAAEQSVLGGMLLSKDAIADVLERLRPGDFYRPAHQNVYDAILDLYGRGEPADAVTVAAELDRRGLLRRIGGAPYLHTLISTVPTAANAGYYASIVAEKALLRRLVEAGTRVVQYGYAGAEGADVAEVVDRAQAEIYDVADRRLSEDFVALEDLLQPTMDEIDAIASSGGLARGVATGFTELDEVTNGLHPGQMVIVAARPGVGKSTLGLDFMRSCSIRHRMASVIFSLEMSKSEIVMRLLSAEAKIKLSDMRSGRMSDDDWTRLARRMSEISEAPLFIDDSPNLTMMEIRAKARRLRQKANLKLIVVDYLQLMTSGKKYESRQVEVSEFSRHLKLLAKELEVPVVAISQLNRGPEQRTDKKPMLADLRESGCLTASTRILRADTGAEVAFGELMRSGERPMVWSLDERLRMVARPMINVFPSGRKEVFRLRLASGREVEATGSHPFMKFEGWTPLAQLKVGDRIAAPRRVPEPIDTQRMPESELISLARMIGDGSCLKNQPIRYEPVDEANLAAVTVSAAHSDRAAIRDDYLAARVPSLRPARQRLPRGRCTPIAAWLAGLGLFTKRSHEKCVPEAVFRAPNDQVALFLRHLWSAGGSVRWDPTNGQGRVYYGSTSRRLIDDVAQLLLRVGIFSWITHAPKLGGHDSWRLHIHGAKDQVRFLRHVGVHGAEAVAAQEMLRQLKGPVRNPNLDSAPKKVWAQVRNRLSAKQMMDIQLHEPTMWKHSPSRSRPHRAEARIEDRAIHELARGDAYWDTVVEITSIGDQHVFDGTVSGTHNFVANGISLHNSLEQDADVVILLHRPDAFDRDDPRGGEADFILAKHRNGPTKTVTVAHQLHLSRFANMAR
# [4] = molecular target: Neuropeptides B/W receptor type 1 (Homo sapiens, UniProt P48145); experiment: Fluorescence-based dose response cell-based high throughput screening assay to identify antagonists of the G-protein coupled receptor 7 (GPR7). [Related pubchem assays: 1952 (Screening assay (GPR7 antagonists).), 1880 (Summary AID.)]; type: functional
# [5] = molecular target: Melanin-concentrating hormone receptor 1 (Homo sapiens, UniProt Q99705); experiment: Fluorescence-based counterscreen for antagonists of the G-protein coupled receptor 7 (GPR7): cell-based high throughput dose response assay to identify antagonists of the melanin-concentrating hormone receptor 1 (MCHR1).; type: functional
# [6] = molecular target: T5, Neuropeptide Y receptor type 1 (Homo sapiens, UniProt P25929); experiment: IC50 of human NPY-Y1 blockers – cell-based, dose response (AID 1277); type: functional
# T5 sequence (P25929 whole entry): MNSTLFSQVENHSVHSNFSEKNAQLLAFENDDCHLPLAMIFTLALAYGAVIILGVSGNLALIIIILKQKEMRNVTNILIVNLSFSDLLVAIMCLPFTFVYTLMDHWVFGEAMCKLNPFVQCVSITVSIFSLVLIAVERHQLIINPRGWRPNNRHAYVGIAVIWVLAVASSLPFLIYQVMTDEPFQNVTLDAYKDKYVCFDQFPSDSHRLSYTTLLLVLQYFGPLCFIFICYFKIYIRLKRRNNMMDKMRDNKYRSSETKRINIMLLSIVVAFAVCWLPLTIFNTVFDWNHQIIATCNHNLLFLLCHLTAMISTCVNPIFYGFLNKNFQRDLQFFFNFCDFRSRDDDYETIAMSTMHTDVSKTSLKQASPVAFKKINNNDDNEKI
# [7] = molecular target: T6, Neuropeptide Y receptor type 2 (Homo sapiens, UniProt P49146); experiment: IC50 for human NPY-Y2 blockade – cell-based, counter-screen for NPY-Y1 antagonist project, dose response (AID 1278); type: functional
# T6 sequence (P49146 whole entry): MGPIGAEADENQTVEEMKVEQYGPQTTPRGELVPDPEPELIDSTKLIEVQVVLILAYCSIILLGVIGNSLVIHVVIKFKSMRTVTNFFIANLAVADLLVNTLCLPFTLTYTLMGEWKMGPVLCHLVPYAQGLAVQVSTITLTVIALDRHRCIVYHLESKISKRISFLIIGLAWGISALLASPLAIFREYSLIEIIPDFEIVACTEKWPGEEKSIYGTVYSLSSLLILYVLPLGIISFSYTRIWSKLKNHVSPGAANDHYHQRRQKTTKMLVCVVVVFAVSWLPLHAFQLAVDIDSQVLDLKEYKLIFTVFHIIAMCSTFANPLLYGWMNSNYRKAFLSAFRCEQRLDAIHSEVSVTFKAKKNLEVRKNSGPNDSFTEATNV
# [8] = HPDE-C7 pancreatic duct cell viability loss – fluorescence, HTS (AID 430); type: functional, cell-based; settings: Homo sapiens
# [9] = viability loss of HPDE-C7K cells – cell-based, fluorescence, HTS, primary screen (AID 431); type: functional; settings: Homo sapiens
# [10] = off-target signal loss in HeLa-CEM21 co-culture – HeLa F-luc CTL cells, cherry-picked, counter-screen for HIV-1 Env fusion inhibitor project, dose response (AID 652040); type: functional, cell-based;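 note: potency for signal decrease marking cytotoxic or nonspecific inhibition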
# [11] = viability of PTEN-deleted HCT116 cells – cell-based, HCT116 PTEN knockout, dose response (AID 1047); type: functional;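 note: HCT116 colon tumor cells with PTEN knocked out; cells exposed to compound for 60 hours before readout; potency for loss of cell viability measured by luminescence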
# [12] = molecular target: G-protein coupled receptor 55 (Homo sapiens, UniProt Q9Y2T6); experiment: inhibition of LPI-stimulated GPR55 beta-arrestin translocation – imaging, U2OS, beta-arrestin-GFP, LPI agonist, primary screen (AID 2013); type: functional;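 note: antagonist potency measured as reduced agonist-driven arrestin aggregation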
# [13] = HIV-1 AD8 envelope cell-cell fusion blockers – cherry-pick, dose response (AID 652062); type: functional, cell-based;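 note: luciferase signal from cell-cell fusion driven by HIV-1 clade B AD8 Env; potency is for inhibitors of fusion seen as a drop in luminescence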
# [14] = viability of HCT116 lacking mutant beta-catenin – cell-based, human colon tumor, dose response (AID 1045); type: functional;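 note: HCT116 colon tumor cells with beta catenin knocked out; cells exposed to compound for 60 hours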
# [15] = blockers of HIV-1 envelope-mediated cell-cell fusion – cherry-pick, dose response (AID 652057); type: functional, cell-based
# [16] = blockers of HIV-1 ZM109 envelope-driven cell-cell fusion – HeLa effector, CEM target cells, luciferase, cherry-pick, dose response (AID 652058); type: functional, cell-based;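 note: luciferase signal from HIV-1 Env mediated cell-cell fusion of effector and target cells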
# Large T antigen = Large T antigen (Simian virus 40, UniProt P03070); type: functional, Betapolyomavirus macacae;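 note: Confirmatory-stage PubChem screen for compounds that inhibit SV40 T antigen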
# [17] = molecular target: Protein-tyrosine kinase 2-beta (Homo sapiens, UniProt Q14289);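 note: potency of inhibitors of PYK2 kinase phosphorylation of poly-GT substrate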
# [18] = molecular target: T7, Calpain-2 catalytic subunit (Sus scrofa, UniProt P43367); experiment: m-calpain protease blockers, concentration series – biochemical, fluorogenic peptide substrate, dose response (AID 1420); type: functional
# T7 sequence (P43367 whole entry): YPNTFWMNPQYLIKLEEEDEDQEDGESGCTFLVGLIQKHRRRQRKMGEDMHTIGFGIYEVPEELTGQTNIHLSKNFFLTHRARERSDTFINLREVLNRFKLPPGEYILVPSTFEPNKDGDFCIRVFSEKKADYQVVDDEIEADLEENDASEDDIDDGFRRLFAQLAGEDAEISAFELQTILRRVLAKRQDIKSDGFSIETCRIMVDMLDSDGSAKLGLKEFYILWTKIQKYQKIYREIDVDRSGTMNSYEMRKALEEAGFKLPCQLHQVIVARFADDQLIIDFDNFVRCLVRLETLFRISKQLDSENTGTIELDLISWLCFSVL
# [19] = molecular target: Potassium voltage-gated channel subfamily KQT member 2 (Rattus norvegicus, UniProt O88943, W236L); experiment: potentiation of rat KCNQ2 current – cell-based, automated electrophysiology, mechanism study for KCNQ2 potentiator project, dose response (AID 2603); type: functional
# Potassium voltage-gated channel subfamily KQT member 2, sequence (O88943 whole entry W236L): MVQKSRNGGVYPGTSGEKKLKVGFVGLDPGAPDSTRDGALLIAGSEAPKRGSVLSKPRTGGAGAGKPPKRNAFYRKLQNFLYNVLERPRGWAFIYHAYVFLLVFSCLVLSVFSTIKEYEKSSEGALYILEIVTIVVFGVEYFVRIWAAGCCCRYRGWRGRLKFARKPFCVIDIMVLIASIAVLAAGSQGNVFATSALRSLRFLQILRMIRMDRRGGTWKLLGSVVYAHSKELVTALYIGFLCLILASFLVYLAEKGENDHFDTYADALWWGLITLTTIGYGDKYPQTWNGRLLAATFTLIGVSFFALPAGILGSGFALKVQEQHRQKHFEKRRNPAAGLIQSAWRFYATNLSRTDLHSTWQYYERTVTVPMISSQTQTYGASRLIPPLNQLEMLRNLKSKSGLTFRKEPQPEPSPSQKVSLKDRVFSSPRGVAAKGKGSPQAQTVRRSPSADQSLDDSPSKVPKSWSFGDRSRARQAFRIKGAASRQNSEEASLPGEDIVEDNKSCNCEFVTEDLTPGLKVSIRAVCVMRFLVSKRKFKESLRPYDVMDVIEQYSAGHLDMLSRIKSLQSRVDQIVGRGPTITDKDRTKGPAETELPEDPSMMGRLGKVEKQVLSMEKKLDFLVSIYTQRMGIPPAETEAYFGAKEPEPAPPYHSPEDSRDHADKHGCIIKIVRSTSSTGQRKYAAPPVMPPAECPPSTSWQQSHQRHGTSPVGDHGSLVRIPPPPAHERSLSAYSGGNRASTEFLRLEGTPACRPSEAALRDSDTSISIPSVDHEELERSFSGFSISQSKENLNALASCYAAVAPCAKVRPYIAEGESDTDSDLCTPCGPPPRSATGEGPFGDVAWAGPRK
# T1 sequence (Q92731 whole entry): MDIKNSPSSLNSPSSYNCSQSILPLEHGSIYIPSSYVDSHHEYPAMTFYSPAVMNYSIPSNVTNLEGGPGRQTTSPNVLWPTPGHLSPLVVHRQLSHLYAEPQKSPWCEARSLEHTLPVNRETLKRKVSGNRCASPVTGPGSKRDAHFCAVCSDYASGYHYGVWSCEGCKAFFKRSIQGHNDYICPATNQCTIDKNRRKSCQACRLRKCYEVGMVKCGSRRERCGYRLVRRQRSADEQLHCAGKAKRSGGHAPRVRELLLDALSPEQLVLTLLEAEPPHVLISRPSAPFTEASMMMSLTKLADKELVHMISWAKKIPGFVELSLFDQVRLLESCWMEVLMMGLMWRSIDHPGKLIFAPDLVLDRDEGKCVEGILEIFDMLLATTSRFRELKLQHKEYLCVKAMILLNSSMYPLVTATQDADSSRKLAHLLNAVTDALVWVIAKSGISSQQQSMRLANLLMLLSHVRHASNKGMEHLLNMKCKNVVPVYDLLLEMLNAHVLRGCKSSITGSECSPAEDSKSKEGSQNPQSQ
# Aspartyl aminopeptidase, sequence (Q8I2J3 whole entry): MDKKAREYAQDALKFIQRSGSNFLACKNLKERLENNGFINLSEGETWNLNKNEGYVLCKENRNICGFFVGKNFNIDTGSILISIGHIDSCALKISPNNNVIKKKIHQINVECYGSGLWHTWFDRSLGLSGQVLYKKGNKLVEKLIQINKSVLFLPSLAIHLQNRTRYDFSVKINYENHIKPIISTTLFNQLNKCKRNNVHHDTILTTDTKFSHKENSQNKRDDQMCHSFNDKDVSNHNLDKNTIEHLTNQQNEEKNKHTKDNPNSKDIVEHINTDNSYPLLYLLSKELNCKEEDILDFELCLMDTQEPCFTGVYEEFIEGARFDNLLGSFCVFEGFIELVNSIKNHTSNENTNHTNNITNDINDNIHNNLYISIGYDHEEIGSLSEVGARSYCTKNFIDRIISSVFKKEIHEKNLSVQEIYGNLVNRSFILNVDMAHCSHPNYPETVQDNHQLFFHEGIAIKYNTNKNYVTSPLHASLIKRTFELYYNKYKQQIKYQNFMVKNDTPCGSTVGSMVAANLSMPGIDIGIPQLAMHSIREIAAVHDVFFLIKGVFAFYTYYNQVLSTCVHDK
# Procathepsin L, sequence (P07711 whole entry): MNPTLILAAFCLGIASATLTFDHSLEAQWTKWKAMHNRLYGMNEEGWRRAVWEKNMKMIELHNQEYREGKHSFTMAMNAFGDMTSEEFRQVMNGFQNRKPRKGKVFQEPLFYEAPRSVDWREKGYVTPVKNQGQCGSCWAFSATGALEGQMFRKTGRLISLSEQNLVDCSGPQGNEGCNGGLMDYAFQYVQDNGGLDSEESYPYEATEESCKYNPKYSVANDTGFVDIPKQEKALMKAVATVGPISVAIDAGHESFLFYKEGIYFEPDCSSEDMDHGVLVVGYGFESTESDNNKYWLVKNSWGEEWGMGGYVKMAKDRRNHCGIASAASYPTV
# Neuropeptides B/W receptor type 1, sequence (P48145 whole entry): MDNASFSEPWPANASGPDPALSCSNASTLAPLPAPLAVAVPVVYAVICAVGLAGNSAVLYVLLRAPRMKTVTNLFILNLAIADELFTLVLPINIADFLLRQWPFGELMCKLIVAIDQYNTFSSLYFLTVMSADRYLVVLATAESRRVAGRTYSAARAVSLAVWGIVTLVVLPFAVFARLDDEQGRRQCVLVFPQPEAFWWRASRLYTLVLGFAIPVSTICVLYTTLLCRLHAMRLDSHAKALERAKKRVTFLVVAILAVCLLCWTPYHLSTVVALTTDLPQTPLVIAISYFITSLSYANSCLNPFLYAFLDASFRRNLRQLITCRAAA
# G-protein coupled receptor 55, sequence (Q9Y2T6 whole entry, the tested form may be a part): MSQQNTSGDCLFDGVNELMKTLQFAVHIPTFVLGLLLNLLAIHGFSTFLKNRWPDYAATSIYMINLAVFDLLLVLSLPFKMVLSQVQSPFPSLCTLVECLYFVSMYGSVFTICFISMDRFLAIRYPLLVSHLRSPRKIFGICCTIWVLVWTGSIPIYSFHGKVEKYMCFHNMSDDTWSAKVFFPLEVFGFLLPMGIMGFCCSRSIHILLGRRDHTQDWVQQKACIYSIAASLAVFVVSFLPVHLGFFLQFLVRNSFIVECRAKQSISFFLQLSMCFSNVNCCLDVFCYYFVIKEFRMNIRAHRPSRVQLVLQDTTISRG
# Large T antigen, sequence (P03070 whole entry): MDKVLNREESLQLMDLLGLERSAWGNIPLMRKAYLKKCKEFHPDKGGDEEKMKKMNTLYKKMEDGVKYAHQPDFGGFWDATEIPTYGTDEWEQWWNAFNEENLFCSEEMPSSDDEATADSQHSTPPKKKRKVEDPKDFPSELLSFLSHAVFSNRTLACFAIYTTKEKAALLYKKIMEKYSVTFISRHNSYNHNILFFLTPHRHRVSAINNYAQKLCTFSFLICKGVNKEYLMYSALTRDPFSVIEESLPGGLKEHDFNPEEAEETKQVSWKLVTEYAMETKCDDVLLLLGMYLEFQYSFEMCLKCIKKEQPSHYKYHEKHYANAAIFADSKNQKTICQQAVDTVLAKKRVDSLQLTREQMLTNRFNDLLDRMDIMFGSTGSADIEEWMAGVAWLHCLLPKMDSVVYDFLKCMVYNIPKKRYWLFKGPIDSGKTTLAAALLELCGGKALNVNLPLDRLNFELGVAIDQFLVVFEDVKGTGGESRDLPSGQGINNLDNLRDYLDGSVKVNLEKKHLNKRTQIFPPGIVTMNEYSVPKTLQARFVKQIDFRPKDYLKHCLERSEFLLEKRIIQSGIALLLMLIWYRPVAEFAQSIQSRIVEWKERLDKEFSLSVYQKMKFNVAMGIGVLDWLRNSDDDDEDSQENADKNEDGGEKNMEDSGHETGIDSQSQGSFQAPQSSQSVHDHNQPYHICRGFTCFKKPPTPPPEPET
# Protein-tyrosine kinase 2-beta, sequence (Q14289 whole entry): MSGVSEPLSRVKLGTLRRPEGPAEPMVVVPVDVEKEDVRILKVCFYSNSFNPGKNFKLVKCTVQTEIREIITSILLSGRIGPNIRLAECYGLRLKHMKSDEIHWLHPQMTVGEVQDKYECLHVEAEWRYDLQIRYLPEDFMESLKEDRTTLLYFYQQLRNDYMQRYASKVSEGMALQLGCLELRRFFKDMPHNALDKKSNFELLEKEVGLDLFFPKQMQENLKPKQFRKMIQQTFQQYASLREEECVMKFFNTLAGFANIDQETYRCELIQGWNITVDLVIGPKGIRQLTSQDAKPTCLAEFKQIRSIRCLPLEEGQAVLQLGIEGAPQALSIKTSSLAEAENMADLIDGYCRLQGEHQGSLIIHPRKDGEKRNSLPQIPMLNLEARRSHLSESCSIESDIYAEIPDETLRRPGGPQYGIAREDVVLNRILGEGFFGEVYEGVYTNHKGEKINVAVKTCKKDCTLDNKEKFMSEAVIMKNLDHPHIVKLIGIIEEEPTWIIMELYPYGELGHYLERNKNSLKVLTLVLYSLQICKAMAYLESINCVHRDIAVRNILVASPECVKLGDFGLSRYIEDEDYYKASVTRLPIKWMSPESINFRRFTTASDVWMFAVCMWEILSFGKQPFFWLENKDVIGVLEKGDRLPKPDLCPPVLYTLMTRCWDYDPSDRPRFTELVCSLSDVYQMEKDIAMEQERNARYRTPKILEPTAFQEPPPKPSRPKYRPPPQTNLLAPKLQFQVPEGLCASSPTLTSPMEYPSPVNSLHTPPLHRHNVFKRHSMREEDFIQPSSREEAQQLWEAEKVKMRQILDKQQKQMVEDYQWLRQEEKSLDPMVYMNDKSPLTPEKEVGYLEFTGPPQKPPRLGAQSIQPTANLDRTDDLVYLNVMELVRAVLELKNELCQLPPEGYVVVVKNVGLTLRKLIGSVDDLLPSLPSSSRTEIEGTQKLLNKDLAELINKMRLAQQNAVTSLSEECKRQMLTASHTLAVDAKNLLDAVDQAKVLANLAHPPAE
# Melanin-concentrating hormone receptor 1, sequence (Q99705 whole entry): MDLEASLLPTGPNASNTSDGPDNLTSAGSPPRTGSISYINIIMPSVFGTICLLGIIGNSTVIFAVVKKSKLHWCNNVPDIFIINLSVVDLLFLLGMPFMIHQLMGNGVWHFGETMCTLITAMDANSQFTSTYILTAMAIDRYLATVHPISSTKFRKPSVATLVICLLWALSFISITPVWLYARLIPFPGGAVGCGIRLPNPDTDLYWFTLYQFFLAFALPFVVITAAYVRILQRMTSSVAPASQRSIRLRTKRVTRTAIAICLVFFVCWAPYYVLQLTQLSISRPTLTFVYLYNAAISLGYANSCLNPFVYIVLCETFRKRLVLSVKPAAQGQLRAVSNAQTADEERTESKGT
structure (smiles),measurement,setting,value
CC1CCCCN1CC(=O)Nc1sc2c(c1C#N)CCC2 (centres undefined),IC50,Estrogen receptor beta [1],> 50 µM (not active)
same,IC50,Estrogen receptor beta [2],> 50 µM (not active)
O=[N+]([O-])c1cccc(-c2cc(O)n[nH]2)c1,IC50,Procathepsin L,> 59.6 µM (not active)
same,IC50,Leucine aminopeptidase,6.99 µM (active)
same,EC50,Protein RecA,2.57 µM (active)
same,IC50,Aspartyl aminopeptidase,> 73.5 µM (not active)
same,AC50,[3],7.14 µM (active)
O=C(NC1CCCCC1)C(c1ccncc1)N(Cc1ccc2c(c1)OCO2)C(=O)c1cnsn1 (centres undefined),IC50,[4],> 43.8 µM (not active)
same,IC50,[5],> 43.8 µM (not active)
same,IC50,[6],32.2 µM (not active)
same,IC50,[7],> 35 µM (not active)
COc1ccc(CCN2C(=O)c3[nH]nc(-c4ccccc4O)c3C2c2ccc(C)cc2)cc1OC (centres undefined),EC50,[8],8.11 µM (active)
same,EC50,[9],9.9 µM (active)
same,AC50,[10],3.34 µM (active)
same,EC50,[11],21.1 µM (active)
same,IC50,[12],2.9 µM (active)
same,AC50,[13],6.57 µM (active)
same,EC50,[14],21.6 µM (active)
same,AC50,[15],2.11 µM (active)
same,AC50,[16],2.58 µM (active)
CCc1ccc2nc3n[nH]c(N)c3cc2c1,IC50,Large T antigen,13.5 µM (active)
same,IC50,[17],24.9 µM (not active)
CCCCn1c(-c2csc(C(C)C)c2)n[nH]c1=S,IC50,[18],> 50 µM (not active)
same,EC50,[19],308 µM (active)
